Where a SMILES comes first, the peptide text is derived from it. Bridges are numbered along the chain shown (N, C = ends).
Assays:
[1] = Serum protein binding by ultrafiltration; assay type: in vitro ADME, mouse; conditions: murine serum, ultrafiltration with Centrifree Filters, ultrafiltrate by HPLC
Experimental: (§1) The 6-week-old, specific-pathogen-free, female ICR mice (starting weight, 23 to 27 g) were purchased from Beijing Vital River Laboratory Animal Technology Co., Ltd (Beijing, China). The animals were acclimatized for 2 to 3 days before the experiment. The pharmacokinetics of NZX was evaluated in uninfected female ICR mice that received a single tail vein NZX dose of 5, 10, or 20 mg/kg, respectively. After NZX administration, blood samples were collected by orbital venous from five mice per time point at 0.083 to 2 h intervals over 6 h. After centrifugation at 4,000 rpm for 20 min at 4°C, the serum was immediately separated and frozen at −80°C until analysis. Analyses of total serum concentrations of NZX were conducted by a microbiologic assay using S. aureus ATCC 6538p (CICC 10307) as the test strain (Andes et al., [2009]). […] The protein binding of NZX in serum was measured by the ultrafiltration method using Centrifree Filters (Merck Millipore Ltd., Product code: 4104), according to previously described methods by Brinch et al. ([2009]). The concentration of NZX in the ultrafiltrate was determined by HPLC methods.

[2] = Pharmacokinetics in non-infected mice, single tail vein dose; assay type: in vivo, mouse; conditions: for T1/2, terminal elimination half-life / AUC, area under concentration-time curves / Cmax, peak concentration / MRT, mean residence time / Vd, apparent distribution volume: free-serum NZX; for T1/2, terminal elimination half-life: non-infected female ICR mice, microbiologic assay, non-compartment model; for AUC, area under concentration-time curves / Cmax, peak concentration / MRT, mean residence time / Vd, apparent distribution volume: non-infected mice
Experimental: as §1
The pharmacokinetic parameters of NZX in the serum were analyzed using a non-compartment model by WinNonlin software (version 8.1; Pharsight, USA). GraphPad Prism (version 9.0.1) was used for all statistical analyses. One-way ANOVA followed by Dunnett's test was performed to compare the difference between groups. A P-value <0.05 was considered as the significant difference. Kaplan Meier analysis was conducted for the survival curve; log-rank (Mantel-Cox) test analyses were used to compare the survival rate difference.

[3] = Stability in mouse serum by RP-HPLC; assay type: in vitro ADME; conditions: 25% mouse serum spiked with 100 μg/ml NZX, 37°C, peak area ratio to initial time, read-out: peptide remaining intact
Experimental: The stability of NZX in the mouse serum was determined when placed at 37°C (Wang et al., [2020]). The stock mixture from 25% serum was spiked with 100 μg/ml NZX and vortexed well. The mixtures were incubated at 37°C. At 0, 4, 8, 12, and 24 h, samples were taken out, extracted, and analyzed by reverse-phase high-performance liquid chromatography (RP-HPLC). The results were expressed as the ratio of the peak area of the peptide at various times to that of the initial incubation time.

[4] = tested on: S. aureus E48; assay: PK/PD index determination, dose fractionation, sigmoidal Emax model; assay type: in vivo, mouse
Experimental: A dose fractionation study was applied to determine the PK/PD parameters of ƒAUC/MIC, ƒCmax/MIC, and ƒT% > MIC, and those parameters were predictive of efficacies for NZX against S. aureus E48. […] The correlations between efficacies and each PK/PD index were analyzed by non-linear least-squares regression based on the sigmoidal Emax model (Hill's equation) (Yu et al., [2016]). Hill's equation was defined as follows:
E =[…] × Ce^N/EC50N + Ce^N
where E is the observed antibacterial effect, which describes the change of log10 CFU/ml in the peritoneal fluid after 24 h of NZX treatment compared to the colony counts at the start of therapy. Emax is the change of log10 CFU/ml in the peritoneal fluid after 24 h of NZX treatment when the maximum antibacterial effect has been reached. E0 is the change of log10 CFU/ml in the peritoneal fluid between initial therapy and after 24 h therapy in untreated control animals. Ce is defined as the three PK/PD parameters (ƒAUC/MIC ratio, ƒCmax/MIC ratio, and ƒT % > MIC). EC50 is the value of the PK/PD parameter that is required to achieve 50% of the maximum antibacterial effect. N is the steepness of the fitted concentration-response curve. The coefficient of determination (R^2) between efficacy and the PK/PD parameters was used for determining the goodness of fit of the curves. In addition, the parameters required to achieve bacterial stasis (Cs), 1 log10 kill, and 2 log10 kill were calculated interpolation or extrapolation based on Hill's equation.

[5] = free NZX in serum, tail vein 5, 10, 20 mg/kg, range over doses
[6] = 5 mg/kg, 1 dose in 24 h, total dose 0.125 mg
[7] = 5 mg/kg, 2 doses in 24 h, total dose 0.25 mg
[8] = 10 mg/kg, 1 dose in 24 h, total dose 0.25 mg
[9] = 10 mg/kg, 2 doses in 24 h, total dose 0.5 mg
[10] = 20 mg/kg, 1 dose in 24 h, total dose 0.5 mg
[11] = 20 mg/kg, 2 doses in 24 h, total dose 1 mg

CC[C@H](C)[C@@H]1NC(=O)[C@H](CO)NC(=O)[C@H](CCCCN)NC(=O)[C@@H]2CSSC[C@@H](C(=O)N[C@@H](Cc3ccc(O)cc3)C(=O)O)NC(=O)[C@H](CCCCN)NC(=O)[C@@H]3CSSC[C@H](NC(=O)[C@H](CCC(N)=O)NC(=O)[C@H]([C@@H](C)CC)NC(=O)[C@H](CC(=O)O)NC(=O)[C@H](CC(=O)O)NC(=O)[C@H](CCC(=O)O)NC(=O)[C@H](CO)NC(=O)[C@H](Cc4c[nH]c5ccccc45)NC(=O)[C@@H]4CCCN4C(=O)CNC(=O)[C@H](CC(N)=O)NC(=O)[C@@H](NC(=O)CNC(=O)[C@H](Cc4ccccc4)NC(=O)CN)CSSC[C@H](NC(=O)[C@H](Cc4ccc(O)cc4)NC(=O)CNC(=O)CNC(=O)[C@H](CCCCN)NC(=O)[C@H](Cc4ccc(O)cc4)NC(=O)CNC(=O)[C@H](CCCCN)NC1=O)C(=O)N[C@@H](C)C(=O)N[C@@H](CCCNC(=N)N)C(=O)NCC(=O)NCC(=O)N[C@@H](Cc1ccccc1)C(=O)N[C@@H](C(C)C)C(=O)N3)C(=O)N[C@@H](Cc1c[nH]cn1)C(=O)N[C@@H](CC(N)=O)C(=O)N[C@@H](Cc1c[nH]cn1)C(=O)N2 [NZX] (H-GFGCNGPWSEDDIQCHNHCKSIKGYKGGYCARGGFVCKCY-OH; disulfide 4-30, 15-37, 19-39)
Protein binding [1]: 89.25% | time at which peak concentrations (Cmax) were observed ([2]; after intravenous administration, 5, 10, 20 mg/kg): 5 min | Cmax over the three dose levels [2, 5]: 2.85 to 20.55 µg/mL | T1/2 over the three dose levels [2, 5]: 19.2 to 30 min | Vd over the three dose levels [2, 5]: 1469.10 to 2073.90 mL/kg | T1/2, terminal elimination half-life ([2]; single intravenous 5 mg/kg, five mice per time point): 19.2 min | AUC, area under concentration-time curves ([2]; single intravenous 5 mg/kg): 1.11 µg·h/mL | Cmax, peak concentration ([2]; single intravenous 5 mg/kg): 2.85 µg/mL | MRT, mean residence time ([2]; single intravenous 5 mg/kg): 19.2 min | Vd, apparent distribution volume ([2]; single intravenous 5 mg/kg): 2073.90 mL/kg | T1/2, terminal elimination half-life ([2]; single intravenous 10 mg/kg): 30 min | AUC, area under concentration-time curves ([2]; single intravenous 10 mg/kg): 3.54 µg·h/mL | Cmax, peak concentration ([2]; single intravenous 10 mg/kg): 6.53 µg/mL | MRT, mean residence time ([2]; single intravenous 10 mg/kg): 38.4 min | Vd, apparent distribution volume ([2]; single intravenous 10 mg/kg): 2045.41 mL/kg | T1/2, terminal elimination half-life ([2]; single intravenous 20 mg/kg): 27 min | AUC, area under concentration-time curves ([2]; single intravenous 20 mg/kg): 8.89 µg·h/mL | Cmax, peak concentration ([2]; single intravenous 20 mg/kg): 20.55 µg/mL | MRT, mean residence time ([2]; single intravenous 20 mg/kg): 33.6 min | Vd, apparent distribution volume ([2]; single intravenous 20 mg/kg): 1469.10 mL/kg | remaining at 24 h, 100 μg/ml [3]: 97% | fAUC/MIC [4, 6]: 1.11 | fT > MIC [4, 6]: 0.33 h | fAUC/MIC [4, 7]: 2.22 | fT > MIC [4, 7]: 0.67 h | fAUC/MIC [4, 8]: 3.54 | fT > MIC [4, 8]: 0.94 h | fAUC/MIC [4, 9]: 7.08 | fT > MIC [4, 9]: 1.88 h | fAUC/MIC [4, 10]: 8.89 | fT > MIC [4, 10]: 2.05 h | fAUC/MIC [4, 11]: 17.79 | fT > MIC [4, 11]: 4.09 h

— article PMC9198545, “Pharmacokinetics and Pharmacodynamics of Fungal Defensin NZX Against Staphylococcus aureus-Induced Mouse Peritonitis Model” (Frontiers in Microbiology, 2022)
